The source of these data is paper PMC5727211, “Development of Erasin: a chromone-based STAT3 inhibitor which induces apoptosis in Erlotinib-resistant lung cancer cells” (Scientific Reports, 2017).

The target in one test is T1, STAT5b SH2 domain (Homo sapiens, UniProt P51692).
T1 sequence (P51692 1-787): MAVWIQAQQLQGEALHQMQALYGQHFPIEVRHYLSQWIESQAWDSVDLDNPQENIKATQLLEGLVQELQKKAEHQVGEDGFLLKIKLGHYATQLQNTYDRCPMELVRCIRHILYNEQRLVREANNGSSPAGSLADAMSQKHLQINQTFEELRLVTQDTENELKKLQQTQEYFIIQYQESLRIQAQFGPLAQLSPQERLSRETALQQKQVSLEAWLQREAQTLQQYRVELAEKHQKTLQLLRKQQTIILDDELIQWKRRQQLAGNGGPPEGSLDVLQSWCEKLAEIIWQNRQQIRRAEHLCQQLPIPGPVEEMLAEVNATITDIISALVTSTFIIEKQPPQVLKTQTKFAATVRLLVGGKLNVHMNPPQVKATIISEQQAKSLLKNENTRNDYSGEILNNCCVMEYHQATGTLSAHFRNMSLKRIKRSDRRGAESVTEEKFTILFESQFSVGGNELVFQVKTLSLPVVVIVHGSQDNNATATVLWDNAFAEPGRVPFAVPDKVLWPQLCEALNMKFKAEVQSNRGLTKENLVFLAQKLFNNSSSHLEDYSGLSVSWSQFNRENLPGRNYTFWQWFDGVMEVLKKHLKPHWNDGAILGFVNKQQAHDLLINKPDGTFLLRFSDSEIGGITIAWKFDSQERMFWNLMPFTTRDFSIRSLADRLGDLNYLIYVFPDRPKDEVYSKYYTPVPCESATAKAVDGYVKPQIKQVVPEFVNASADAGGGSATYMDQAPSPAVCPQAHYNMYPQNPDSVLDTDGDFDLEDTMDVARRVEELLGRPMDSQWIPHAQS
Put plainly: FP-based competitive binding assay, STAT5b SH2 domain. The note with it: mean ± s.d., three experiments; for IC50: 1 h with protein, then 1 h with peptide, read-out: STAT5b app. IC50; for inhibition at 80 µM / STAT5b inhibition: at 80 µM. On the procedure:
(§1) The STAT family display a high degree of homology. […] Vilsmeyer-Haack formylation of 2-hydroxy acetophenones led to 3-formyl chromones, which were subsequently converted to the acyl hydrazones by reaction with hydrazides (Fig. 1). The target molecules were tested for their abilities to inhibit binding of fluorophore-labeled peptides to the SH2 domains of STAT1[24], STAT3[25], and STAT5b[26] in assays based on fluorescence polarization (FP). The more distantly related SH2 domain of the tyrosine kinase Lck served as additional specificity control[27],[28].
(§2) Assays were performed essentially as described. In brief, protein was incubated with the test compounds for 1 h at room temperature at the following protein concentrations: STAT1: 400 nM, STAT3: 210 nM, STAT5b: 300 nM, Lck SH2: 35 nM. Subsequently, the corresponding fluorophore-labeled peptide was added: STAT1: (5-carboxyfluorescein)-GpYDKPHVL-OH, derived from the interferon-γ receptor[24]; STAT3: (5-carboxyfluorescein)-GpYLPQTV-NH2, derived from the gp130 subunit of the IL-6 receptor[25]; STAT5b: (5-carboxyfluorescein)-GpYLVLDKW-OH, derived from the erythropoietin receptor[26]; Lck SH2: (5-carboxyfluorescein)-GpYEEIP-OH, derived from the middle-T antigen. After a further hour of incubation, fluorescence polarization was measured in a plate reader (Tecan Infinite F500). Apparent IC50 data shown in Tables 1, 2, and S1 and the inhibition curves shown in Fig. 2a correspond to this time point. The majority of the pipetting work was carried out using a Biomek FXp workstation (Beckman-Coulter). Buffer composition: 10 mM Tris pH 8.0, 50 mM NaCl, 1 mM EDTA, 1 mM dithiothreitol (DTT), 0.1% Nonidet P-40, and 2% DMSO.

For the next test, the target named is T2, Lck SH2 (Homo sapiens, UniProt P06239).
T2 construct: STAT1: 400 nM, STAT3: 210 nM, STAT5b: 300 nM, Lck SH2: 35 nM
T2 sequence (P06239 127-224 limits assumed): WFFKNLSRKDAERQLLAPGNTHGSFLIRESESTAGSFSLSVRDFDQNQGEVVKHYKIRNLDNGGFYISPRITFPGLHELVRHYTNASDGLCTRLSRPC
Put plainly: FP-based competitive binding assay, Lck SH2 domain. The note with it: for Lck inhibition: at 80 µM. On the procedure:
as §1, §2
Supplementary Figures and Table
No Structure app. IC50 [µM] or
Supplementary Table S1: Activities of test compounds in fluorescence polarization assays against the
SH2 domains of Lck. See the Supporting Methods for details. […]

The target of another test is STAT3 SH2 domain (Homo sapiens, UniProt P40763). In words: FP-based competitive binding assay, STAT3 SH2 domain. The note with it: mean ± s.d., three experiments; for IC50: 1 h with protein, then 1 h with peptide, read-out: STAT3 app. IC50; for inhibition at 80 µM / STAT3 inhibition: at 80 µM. On the procedure: as §1
Chain of STAT3 SH2 domain (P40763 whole entry, the tested form may be a part): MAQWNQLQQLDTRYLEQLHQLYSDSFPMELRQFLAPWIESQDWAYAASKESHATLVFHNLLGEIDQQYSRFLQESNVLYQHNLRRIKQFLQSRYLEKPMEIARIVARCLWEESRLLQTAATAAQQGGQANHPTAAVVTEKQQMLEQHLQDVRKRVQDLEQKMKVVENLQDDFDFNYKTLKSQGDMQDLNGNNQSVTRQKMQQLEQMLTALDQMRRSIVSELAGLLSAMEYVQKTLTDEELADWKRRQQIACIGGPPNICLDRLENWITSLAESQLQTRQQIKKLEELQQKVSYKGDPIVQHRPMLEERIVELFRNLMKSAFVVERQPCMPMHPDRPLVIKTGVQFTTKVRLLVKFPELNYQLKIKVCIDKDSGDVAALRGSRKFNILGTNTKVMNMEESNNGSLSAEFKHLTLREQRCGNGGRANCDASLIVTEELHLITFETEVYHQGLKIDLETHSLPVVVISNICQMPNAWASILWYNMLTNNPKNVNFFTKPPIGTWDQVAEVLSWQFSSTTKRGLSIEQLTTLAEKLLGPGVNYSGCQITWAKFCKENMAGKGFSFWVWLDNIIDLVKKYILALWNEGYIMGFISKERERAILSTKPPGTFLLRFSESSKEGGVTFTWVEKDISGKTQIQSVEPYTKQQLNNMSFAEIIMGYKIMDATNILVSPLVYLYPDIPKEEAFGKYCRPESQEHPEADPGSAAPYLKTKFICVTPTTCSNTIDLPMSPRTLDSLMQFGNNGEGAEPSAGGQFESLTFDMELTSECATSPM
as §2, with “Buffer composition: 10 mM Tris pH 8.0, 50 mM NaCl, 1 mM EDTA, 1 mM dithiothreitol (DTT), 0.1% Nonidet P-40, and 2% DMSO.” left out

The next test concerns the target T3, STAT1 SH2 domain (Homo sapiens, UniProt P42224).
T3 sequence (P42224 1-750): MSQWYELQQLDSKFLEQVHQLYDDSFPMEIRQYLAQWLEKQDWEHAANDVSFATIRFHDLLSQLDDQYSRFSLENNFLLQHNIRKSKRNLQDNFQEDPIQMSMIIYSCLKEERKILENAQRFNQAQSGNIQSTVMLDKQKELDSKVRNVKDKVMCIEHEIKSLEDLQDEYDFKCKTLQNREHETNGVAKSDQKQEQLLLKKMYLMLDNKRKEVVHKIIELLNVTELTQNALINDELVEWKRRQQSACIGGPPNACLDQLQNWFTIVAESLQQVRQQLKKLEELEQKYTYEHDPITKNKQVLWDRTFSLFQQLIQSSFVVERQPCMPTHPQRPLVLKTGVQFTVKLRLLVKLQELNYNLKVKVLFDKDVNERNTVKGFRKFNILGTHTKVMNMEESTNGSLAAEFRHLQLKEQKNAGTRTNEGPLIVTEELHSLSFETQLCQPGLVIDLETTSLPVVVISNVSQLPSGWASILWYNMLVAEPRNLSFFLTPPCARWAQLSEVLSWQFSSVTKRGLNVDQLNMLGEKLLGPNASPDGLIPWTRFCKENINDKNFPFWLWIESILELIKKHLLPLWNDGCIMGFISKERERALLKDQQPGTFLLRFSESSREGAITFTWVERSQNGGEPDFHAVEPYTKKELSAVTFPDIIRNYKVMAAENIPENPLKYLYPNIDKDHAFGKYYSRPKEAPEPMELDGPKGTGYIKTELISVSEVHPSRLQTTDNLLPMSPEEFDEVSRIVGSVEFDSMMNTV
Put plainly: FP-based competitive binding assay, STAT1 SH2 domain. The note with it: mean ± s.d., three experiments; for IC50: 1 h with protein, then 1 h with peptide, read-out: STAT1 app. IC50; for inhibition at 80 µM / STAT1 inhibition: at 80 µM. On the procedure:
as §1, §2

Structures are written as SMILES.

With `O=C(N/N=C/c1coc2ccc(Cl)cc2c1=O)c1cccnc1` [Compound 3], the inhibition at 80 µM at STAT5b SH2 domain was 31 ± 4%; on Lck SH2, 6 ± 6%. The IC50 at STAT3 SH2 domain was 40 ± 3 µM; at STAT1 SH2 domain it was 32 ± 11 µM.

Take `O=C(N/N=C/c1coc2ccc(Br)cc2c1=O)c1cccnc1` [Compound 4]: the results for the inhibition at 80 µM at STAT5b SH2 domain, on Lck SH2 and on STAT1 SH2 domain were 33 ± 7%, 13 ± 2% and 36 ± 6%, respectively. Moreover, the IC50 on STAT3 SH2 domain was found to be 25 ± 1 µM.

`Cc1ccc2occ(/C=N/NC(=O)c3cccnc3)c(=O)c2c1` [Compound 5]: the IC50 at STAT5b SH2 domain came out at 32 ± 24 µM. In addition, on Lck SH2, the Lck inhibition result was “no inhibition”. Moreover, the inhibition at 80 µM came to 40 ± 2% at STAT3 SH2 domain and 12 ± 3% at STAT1 SH2 domain.

With `CC(C)c1ccc2occ(/C=N/NC(=O)c3cccnc3)c(=O)c2c1` [Compound 7], the IC50 on STAT5b SH2 domain stood at 52 ± 12 µM; on STAT3 SH2 domain, 22 ± 1 µM; on STAT1 SH2 domain, 39 ± 2 µM. Also, on Lck SH2, the Lck inhibition result was “no inhibition”.

In the case of `CC(C)(C)c1ccc2occ(C=O)c(=O)c2c1` [Compound 8a], the IC50 at STAT5b SH2 domain came to 27.7 ± 1.5 µM; on STAT3 SH2 domain, 8.9 ± 0.8 µM; at STAT1 SH2 domain, 15 ± 1.4 µM.

On to `CCC(C)(C)c1ccc2occ(C=O)c(=O)c2c1` [Compound 9a], for which the IC50 at STAT5b SH2 domain was 34.8 ± 4.2 µM; at STAT3 SH2 domain, 5.3 ± 0.4 µM; at STAT1 SH2 domain, 10.7 ± 1.1 µM.

Take `O=C(N/N=C/c1coc2ccc(-c3ccccc3)cc2c1=O)c1cccnc1` [Compound 10]: at STAT5b SH2 domain, the STAT5b inhibition entry is reported as “no inhibition at 80 µM”. In addition, at Lck SH2, the Lck inhibition result is on record as “no inhibition”. Further, at STAT3 SH2 domain, the STAT3 inhibition stood at 35 ± 5% inhibition at 80 µM. The molecule further came in with an STAT1 inhibition at STAT1 SH2 domain of 36 ± 2% inhibition at 80 µM.

Turning to `COc1ccc2occ(/C=N/NC(=O)c3cccnc3)c(=O)c2c1` [Compound 11], the inhibition at 80 µM at STAT5b SH2 domain was determined as 30 ± 7%; at Lck SH2, 23 ± 2%; at STAT1 SH2 domain, 19 ± 2%. Also, the half-inhibitory concentration (IC50) on STAT3 SH2 domain was 65 ± 1 µM.

As to `O=C(N/N=C/c1coc2ccc([N+](=O)[O-])cc2c1=O)c1cccnc1` [Compound 12], the STAT5b inhibition result on STAT5b SH2 domain is “no inhibition at 80 µM”. In addition, the inhibition at 80 µM was determined as 22 ± 6% at Lck SH2, 14 ± 2% on STAT3 SH2 domain and 3 ± 3% on STAT1 SH2 domain.

As to `CC(C)(C)c1ccc2occ(/C=N/NC(=O)c3ccccc3)c(=O)c2c1` [Compound 13], the IC50 on STAT3 SH2 domain was found to be 14 ± 2 µM; at STAT1 SH2 domain, 35 ± 4 µM.

On to `CC(C)(C)c1ccc2occ(/C=N/NC(=O)c3ccc(O)cc3)c(=O)c2c1` [Compound 14], for which the IC50 at STAT3 SH2 domain was determined as 19 ± 1 µM; on STAT1 SH2 domain it was 77 ± 16 µM.

On to `COc1ccc(C(=O)N/N=C/c2coc3ccc(C(C)(C)C)cc3c2=O)cc1` [Compound 15], for which, on STAT3 SH2 domain, the IC50 is 26 ± 5 µM. In addition, on STAT1 SH2 domain, 80 µM produced 34 ± 4% inhibition.

`COc1cccc(C(=O)N/N=C/c2coc3ccc(C(C)(C)C)cc3c2=O)c1` [Compound 16]: the inhibition at 80 µM on STAT3 SH2 domain is 42 ± 2%; on STAT1 SH2 domain, 15 ± 2%.

For the molecule `CC(C)(C)c1ccc2occ(/C=N/NC(=O)c3ccco3)c(=O)c2c1` [Compound 17], the IC50 at STAT3 SH2 domain came to 14 ± 1 µM; at STAT1 SH2 domain it was 49 ± 2 µM.

Consider `CC(C)(C)c1ccc2occ(/C=N/NC(=O)c3cccs3)c(=O)c2c1` [Compound 18], for which, on STAT3 SH2 domain, the IC50 was 39 ± 4 µM. Besides, the inhibition at 80 µM at STAT1 SH2 domain came out at 32 ± 0.1%.

For `CC(C)(C)c1ccc2occ(/C=N/NC(=O)c3ccc[nH]3)c(=O)c2c1` [Compound 19], the IC50 at STAT3 SH2 domain amounted to 50 ± 7 µM. The same molecule showed an STAT1 inhibition on STAT1 SH2 domain of 9 ± 4% inhibition at 80 µM.

In the case of `CC(C)(C)c1ccc2occ(/C=N/NC(=O)c3ccc(F)cc3)c(=O)c2c1` [Compound 20], the figures for the inhibition at 80 µM at STAT3 SH2 domain and on STAT1 SH2 domain were 31 ± 8% and 10 ± 5%, respectively.

In the case of `CC(C)(C)c1ccc2occ(/C=N/NC(=O)c3ccc(Cl)cc3)c(=O)c2c1` [Compound 21], the STAT3 inhibition at STAT3 SH2 domain was found to be 20 ± 2% at 80 µM. At STAT1 SH2 domain, this molecule gave an STAT1 inhibition of 12 ± 4% inhibition at 80 µM.

`CC(C)(C)c1ccc2occ(/C=N/NCc3ccccc3)c(=O)c2c1` [Compound 22] gave an inhibition at 80 µM on STAT3 SH2 domain of 9 ± 3%.

On STAT3 SH2 domain, `CC(C)(C)c1ccc2occ(/C=N/NS(=O)(=O)c3ccccc3)c(=O)c2c1` [Compound 23] gave an inhibition at 80 µM of 4 ± 3%.

For orientation: inhibition means the change of the read-out against control, counted positive when it falls. One may read the IC50 as the point on the concentration scale where inhibition reaches its midpoint.
